From the supplement of paper PMC4862054

Each compound was assayed on MDA-MB-468 (assay: normalised viability (% of control), CellTiter-Blue; higher = more viable cells (about 100 = DMSO control)). Conditions: 1000 nM; incubation time: 72 h.
Outline: (§1)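 Compound dissolved in 5 µl medium was pre-loaded into 384-well plates, and breast cancer cell lines in 20 µl suspension were seeded on top and incubated 72 h. After adding 2.5 µl CellTiter-Blue reagent for 2 h at 37 °C, fluorescence was read at 560/590 nm. Plates were normalised to vehicle (100) and a positive kill control (0), with Z'-factor quality control. Each value is normalised viability at a single listed concentration from the series.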

Q: With `Clc1ccc(Nc2nnc(Cc3ccncc3)c3ccccc23)cc1` [Vatalanib] as the compound, how does the normalised viability read?
A: 112%

Q: `NCC(=O)CCC(=O)O` [Aminolevulinic acid] was tested. Which normalised viability did it give?
A: 111%

Q: Which normalised viability does the source give for `CCN(CCCOc1ccc2c(Nc3cc(CC(=O)Nc4cccc(F)c4)[nH]n3)ncnc2c1)CCOP(=O)(O)O` [Barasertib] here?
A: 26.5%

Q: `CO[C@H]1/C=C\C=C(/C)C(=O)NC2=CC(=O)C(NCCN(C)C)=C(C[C@@H](C)C[C@H](OC)[C@H](O)[C@@H](C)/C=C(\C)[C@@H]1OC(N)=O)C2=O` [Alvespimycin] was tested. Which normalised viability did it give?
A: 29.3%

Q: Which normalised viability does the source give for `NC(=O)Nc1cc(-c2cccc(F)c2)sc1C(=O)N[C@H]1CCCNC1` [AZD 7762] here?
A: 22.2%

Same assay, conditions: 10000 nM; incubation time: 72 h

Q: `O=C1CCC(N2C(=O)c3ccccc3C2=O)C(=O)N1` (stereo unspecified) [Thalidomide] was tested. Which normalised viability did it give?
A: 105%

Q: For `C=C(c1ccc(C(=O)O)cc1)c1cc2c(cc1C)C(C)(C)CCC2(C)C` [Bexarotene], which normalised viability is on record?
A: 110%

Q: How did the normalised viability turn out when `CCC1(c2ccc(N)cc2)CCC(=O)NC1=O` (stereo unspecified) [Aminoglutethimide] was run?
A: 110%

Q: `Clc1ccc(Nc2nnc(Cc3ccncc3)c3ccccc23)cc1` [Vatalanib] was tested. Which normalised viability did it give?
A: 78.2%

Q: With `NCC(=O)CCC(=O)O` [Aminolevulinic acid] as the compound, how does the normalised viability read?
A: 102%

These compounds were tested on HCC1143 in the same assay as above. Conditions: 1 nM; incubation time: 72 h.
Outline: as §1

Q: Which normalised viability does the source give for `CCN(CCCOc1ccc2c(Nc3cc(CC(=O)Nc4cccc(F)c4)[nH]n3)ncnc2c1)CCOP(=O)(O)O` [Barasertib] here?
A: 124%

Q: How did the normalised viability turn out when `CO[C@H]1/C=C\C=C(/C)C(=O)NC2=CC(=O)C(NCCN(C)C)=C(C[C@@H](C)C[C@H](OC)[C@H](O)[C@@H](C)/C=C(\C)[C@@H]1OC(N)=O)C2=O` [Alvespimycin] was run?
A: 103%

Q: Which normalised viability does the source give for `NC(=O)Nc1cc(-c2cccc(F)c2)sc1C(=O)N[C@H]1CCCNC1` [AZD 7762] here?
A: 120%

Same assay, conditions: 10 nM; incubation time: 72 h

Q: For `O=C1CCC(N2C(=O)c3ccccc3C2=O)C(=O)N1` (stereo unspecified) [Thalidomide], which normalised viability is on record?
A: 109%

Q: How did the normalised viability turn out when `C=C(c1ccc(C(=O)O)cc1)c1cc2c(cc1C)C(C)(C)CCC2(C)C` [Bexarotene] was run?
A: 123%

Q: Which normalised viability does the source give for `CCC1(c2ccc(N)cc2)CCC(=O)NC1=O` (stereo unspecified) [Aminoglutethimide] here?
A: 124%

Q: With `Clc1ccc(Nc2nnc(Cc3ccncc3)c3ccccc23)cc1` [Vatalanib] as the compound, how does the normalised viability read?
A: 80.5%

Q: Which normalised viability does the source give for `NCC(=O)CCC(=O)O` [Aminolevulinic acid] here?
A: 81.1%

Same assay, conditions: 100 nM; incubation time: 72 h

Q: For `CCN(CCCOc1ccc2c(Nc3cc(CC(=O)Nc4cccc(F)c4)[nH]n3)ncnc2c1)CCOP(=O)(O)O` [Barasertib], which normalised viability is on record?
A: 78.4%

Q: `CO[C@H]1/C=C\C=C(/C)C(=O)NC2=CC(=O)C(NCCN(C)C)=C(C[C@@H](C)C[C@H](OC)[C@H](O)[C@@H](C)/C=C(\C)[C@@H]1OC(N)=O)C2=O` [Alvespimycin] was tested. Which normalised viability did it give?
A: 46.8%

Q: How did the normalised viability turn out when `NC(=O)Nc1cc(-c2cccc(F)c2)sc1C(=O)N[C@H]1CCCNC1` [AZD 7762] was run?
A: 109%

Same assay, conditions: 1000 nM; incubation time: 72 h

Q: `O=C1CCC(N2C(=O)c3ccccc3C2=O)C(=O)N1` (stereo unspecified) [Thalidomide] was tested. Which normalised viability did it give?
A: 102%

Q: How did the normalised viability turn out when `C=C(c1ccc(C(=O)O)cc1)c1cc2c(cc1C)C(C)(C)CCC2(C)C` [Bexarotene] was run?
A: 117%

Q: `CCC1(c2ccc(N)cc2)CCC(=O)NC1=O` (stereo unspecified) [Aminoglutethimide] was tested. Which normalised viability did it give?
A: 115%

Q: How did the normalised viability turn out when `Clc1ccc(Nc2nnc(Cc3ccncc3)c3ccccc23)cc1` [Vatalanib] was run?
A: 87.2%

Q: How did the normalised viability turn out when `NCC(=O)CCC(=O)O` [Aminolevulinic acid] was run?
A: 82.6%

Q: For `CCN(CCCOc1ccc2c(Nc3cc(CC(=O)Nc4cccc(F)c4)[nH]n3)ncnc2c1)CCOP(=O)(O)O` [Barasertib], which normalised viability is on record?
A: 85.9%

Q: `CO[C@H]1/C=C\C=C(/C)C(=O)NC2=CC(=O)C(NCCN(C)C)=C(C[C@@H](C)C[C@H](OC)[C@H](O)[C@@H](C)/C=C(\C)[C@@H]1OC(N)=O)C2=O` [Alvespimycin] was tested. Which normalised viability did it give?
A: 37.7%

Q: For `NC(=O)Nc1cc(-c2cccc(F)c2)sc1C(=O)N[C@H]1CCCNC1` [AZD 7762], which normalised viability is on record?
A: 34.8%

Same assay, conditions: 10000 nM; incubation time: 72 h

Q: `O=C1CCC(N2C(=O)c3ccccc3C2=O)C(=O)N1` (stereo unspecified) [Thalidomide] was tested. Which normalised viability did it give?
A: 107%

Q: With `C=C(c1ccc(C(=O)O)cc1)c1cc2c(cc1C)C(C)(C)CCC2(C)C` [Bexarotene] as the compound, how does the normalised viability read?
A: 104%

Q: With `CCC1(c2ccc(N)cc2)CCC(=O)NC1=O` (stereo unspecified) [Aminoglutethimide] as the compound, how does the normalised viability read?
A: 122%

Q: How did the normalised viability turn out when `Clc1ccc(Nc2nnc(Cc3ccncc3)c3ccccc23)cc1` [Vatalanib] was run?
A: 79.6%

Q: How did the normalised viability turn out when `NCC(=O)CCC(=O)O` [Aminolevulinic acid] was run?
A: 85.2%

The compounds below were run on Hs578T in the same assay as above. Conditions: 1 nM; incubation time: 72 h.
Outline: as §1

Q: With `CCN(CCCOc1ccc2c(Nc3cc(CC(=O)Nc4cccc(F)c4)[nH]n3)ncnc2c1)CCOP(=O)(O)O` [Barasertib] as the compound, how does the normalised viability read?
A: 106%

Q: For `CO[C@H]1/C=C\C=C(/C)C(=O)NC2=CC(=O)C(NCCN(C)C)=C(C[C@@H](C)C[C@H](OC)[C@H](O)[C@@H](C)/C=C(\C)[C@@H]1OC(N)=O)C2=O` [Alvespimycin], which normalised viability is on record?
A: 102%

Q: Which normalised viability does the source give for `NC(=O)Nc1cc(-c2cccc(F)c2)sc1C(=O)N[C@H]1CCCNC1` [AZD 7762] here?
A: 106%

Same assay, conditions: 10 nM; incubation time: 72 h

Q: With `O=C1CCC(N2C(=O)c3ccccc3C2=O)C(=O)N1` (stereo unspecified) [Thalidomide] as the compound, how does the normalised viability read?
A: 97.8%

Q: `C=C(c1ccc(C(=O)O)cc1)c1cc2c(cc1C)C(C)(C)CCC2(C)C` [Bexarotene] was tested. Which normalised viability did it give?
A: 99%

Q: `CCC1(c2ccc(N)cc2)CCC(=O)NC1=O` (stereo unspecified) [Aminoglutethimide] was tested. Which normalised viability did it give?
A: 95.8%

Q: For `Clc1ccc(Nc2nnc(Cc3ccncc3)c3ccccc23)cc1` [Vatalanib], which normalised viability is on record?
A: 115%

Q: `NCC(=O)CCC(=O)O` [Aminolevulinic acid] was tested. Which normalised viability did it give?
A: 108%

Same assay, conditions: 100 nM; incubation time: 72 h

Q: `CCN(CCCOc1ccc2c(Nc3cc(CC(=O)Nc4cccc(F)c4)[nH]n3)ncnc2c1)CCOP(=O)(O)O` [Barasertib] was tested. Which normalised viability did it give?
A: 62.6%

Q: For `CO[C@H]1/C=C\C=C(/C)C(=O)NC2=CC(=O)C(NCCN(C)C)=C(C[C@@H](C)C[C@H](OC)[C@H](O)[C@@H](C)/C=C(\C)[C@@H]1OC(N)=O)C2=O` [Alvespimycin], which normalised viability is on record?
A: 43.6%

Q: For `NC(=O)Nc1cc(-c2cccc(F)c2)sc1C(=O)N[C@H]1CCCNC1` [AZD 7762], which normalised viability is on record?
A: 90%

Same assay, conditions: 1000 nM; incubation time: 72 h

Q: How did the normalised viability turn out when `O=C1CCC(N2C(=O)c3ccccc3C2=O)C(=O)N1` (stereo unspecified) [Thalidomide] was run?
A: 108%
